Reference: patent publication US10738028B2, “Spiro three-membered ring, spiro five-membered ring peptide deformylase inhibitor and use thereof in antibacteria and anti-tumor” (priority 2016, dated 2020)

Columns and labels:
Format in all cases: cell-based
[1] = test system: Enterococcus faecalis (EFA); assay: MIC, two-fold agar dilution (CLSI), clinical isolates
Method in brief: (§1)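 Susceptibility was tested using CLSI two-fold agar dilution against the strains examined.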

[2] = test system: Enterococcus faecium (EFM); assay: as above
Method in brief: as §1

[3] = test system: Escherichia coli (including ESBLs, non-ESBLs); assay: as above
Method in brief: as §1

[4] = test system: Moraxella catarrhalis (BCA); assay: as above
Method in brief: as §1

[5] = test system: Streptococcus pneoumoniae (SPN); assay: as above; settings: strain SPN 16-2
Method in brief: as §1

[6] = test system: methicillin-resistant Staphylococcus aureus (MRSA); assay: as above
Method in brief: as §1

[7] = test system: methicillin-resistant Staphylococcus epidermidis (MRSE); assay: as above
Method in brief: as §1

[8] = test system: methicillin-sensitive Staphylococcus aureus (MSSA); assay: as above
Method in brief: as §1

[9] = test system: methicillin-sensitive Staphylococcus epidermidis (MSSE); assay: as above
Method in brief: as §1

[10] = test system: HCT-116 colorectal cancer cell line; assay: CCK-8 proliferation inhibition; settings: 72 hours, CCK-8
Method in brief: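 Cells were plated overnight at 2000 cells/well, then compound in culture medium was added at a range of final concentrations. After 72 hours in a CO2 incubator, medium was replaced with 1:10 CCK-8 solution for the read-out.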

[11] = test system: A549 lung cancer cell line; assay: CCK-8 proliferation inhibition
Method in brief: (§2)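 Plating at 2000 cells/well, then incubation overnight at 37° C. Next, a range of compound concentrations for 72 hours (control 1‰ DMSO). Finally, medium decanted and CCK-8 diluted 1:10 added.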

[12] = test system: BEL-7402 liver cancer cell line; assay: CCK-8 proliferation inhibition
Method in brief: as §2

[13] = test system: MGC-803 gastric cancer cell line; assay: CCK-8 proliferation inhibition
Method in brief: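 Proliferation was measured with 1:10 diluted CCK-8 after a 72-hour incubation with the inhibitors at various final concentrations, using 1‰ DMSO as the control. Cells were plated at 2000 per well. Culture media contained 10% newborn bovine serum: 1640 for Jurkat and MGC-803, F12 for PC3, DMEM high glucose for MCF-7.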

[14] = MIC in vitro anti-bacterial experiments, Gram-positive bacteria; settings: lowest MIC reached; read-out: minimum inhibitory concentration against Gram-positive bacteria
Text: 1. The invention adopts the two-fold agar dilution method recommended by the operating procedure of antimicrobial susceptibility testing set by American Clinical and Laboratory Standards Institute (CLSI) to determine the Minimum Inhibitory Concentration (MIC) of the test samples against the tested strains.

[15] = concentration of 30 μM, 72 hours, 30 µM

`O=C(C[C@@H](CC1CCCC1)C(=O)N1CC2(CC2)C[C@H]1C(=O)Nc1nc(C(F)(F)F)cs1)NO` [Example 73] gave an Anti-bacterial activity (MIC) ([1]; strain EFA 15-1) of 2 µg/mL, an Anti-bacterial activity (MIC) ([1]; strain EFA 15-2) of 2 µg/mL and an Anti-bacterial activity (MIC) ([1]; strain EFA 15-3) of 2 µg/mL. For the same compound, the Anti-bacterial activity (MIC) ([1]; strain EFA 15-4) was 2 µg/mL, the Anti-bacterial activity (MIC) ([1]; strain EFA 15-5) was 2 µg/mL and the Anti-bacterial activity (MIC) ([1]; strain EFA 15-6) was 2 µg/mL. For the same compound, the Anti-bacterial activity (MIC) ([1]; strain EFA 15-9) was 2 µg/mL, the Anti-bacterial activity (MIC) ([2]; strain EFM 15-1) was 1 µg/mL and the Anti-bacterial activity (MIC) ([2]; strain EFM 15-2) was 1 µg/mL. The Anti-bacterial activity (MIC) ([2]; strain EFM 15-3) was 0.125 µg/mL, the Anti-bacterial activity (MIC) ([2]; strain EFM 15-4) was 1 µg/mL and the Anti-bacterial activity (MIC) ([2]; strain EFM 15-5) was 0.125 µg/mL. The Anti-bacterial activity (MIC) ([2]; strain EFM 15-6) was 1 µg/mL, the Anti-bacterial activity (MIC), strain ECO+ 15-1 ([3]; clinical isolate ECO+ 15-1) was 16 µg/mL and the Anti-bacterial activity (MIC), strain ECO+ 15-2 ([3]; clinical isolate ECO+ 15-2) was 32 µg/mL. The Anti-bacterial activity (MIC), strain ECO+ 15-3 ([3]; clinical isolate ECO+ 15-3) was 32 µg/mL, the Anti-bacterial activity (MIC), strain ECO+ 15-4 ([3]; clinical isolate ECO+ 15-4) was 32 µg/mL and the Anti-bacterial activity (MIC), strain ECO− 15-1 ([3]; clinical isolate ECO− 15-1) was 32 µg/mL. It also gave an Anti-bacterial activity (MIC), strain ECO− 15-2 ([3]; clinical isolate ECO− 15-2) of 32 µg/mL, an Anti-bacterial activity (MIC), strain ECO− 15-3 ([3]; clinical isolate ECO− 15-3) of 32 µg/mL and an Anti-bacterial activity (MIC), strain ECO− 15-4 ([3]; clinical isolate ECO− 15-4) of 32 µg/mL. It also gave an Anti-bacterial activity (MIC) ([4]; strain BCA 14-1) of 1 µg/mL, an Anti-bacterial activity (MIC) ([4]; strain BCA 14-4) of 1 µg/mL and an Anti-bacterial activity (MIC) ([4]; strain BCA 14-5) of 0.25 µg/mL. It also gave an Anti-bacterial activity (MIC) ([4]; strain BCA 14-6) of 1 µg/mL, an Anti-bacterial activity (MIC) ([4]; strain BCA 14-7) of 0.125 µg/mL and an Anti-bacterial activity (MIC) ([4]; strain BCA 14-8) of 0.25 µg/mL. It also gave an Anti-bacterial activity (MIC) ([4]; strain BCA 14-10) of 0.125 µg/mL, an Anti-bacterial activity (MIC) [5] of 1 µg/mL and an Anti-bacterial activity (MIC), strain MRSA 15-1 ([6]; clinical isolate MRSA 15-1) of 0.03 µg/mL. For the same compound, the Anti-bacterial activity (MIC), strain MRSA 15-2 ([6]; clinical isolate MRSA 15-2) was 0.06 µg/mL, the Anti-bacterial activity (MIC), strain MRSA 15-3 ([6]; clinical isolate MRSA 15-3) was 0.06 µg/mL and the Anti-bacterial activity (MIC), strain MRSA 15-4 ([6]; clinical isolate MRSA 15-4) was 0.06 µg/mL. For the same compound, the Anti-bacterial activity (MIC), strain MRSE 15-1 ([7]; clinical isolate MRSE 15-1) was < 0.008 µg/mL, the Anti-bacterial activity (MIC), strain MRSE 15-2 ([7]; clinical isolate MRSE 15-2) was 0.015 µg/mL and the Anti-bacterial activity (MIC), strain MRSE 15-3 ([7]; clinical isolate MRSE 15-3) was < 0.008 µg/mL. It also gave an Anti-bacterial activity (MIC), strain MRSE 15-7 ([7]; clinical isolate MRSE 15-7) of 0.06 µg/mL, an Anti-bacterial activity (MIC), strain MSSA 15-3 ([8]; clinical isolate MSSA 15-3) of 0.06 µg/mL and an Anti-bacterial activity (MIC), strain MSSA 15-4 ([8]; clinical isolate MSSA 15-4) of 0.06 µg/mL. It also gave an Anti-bacterial activity (MIC), strain MSSA 15-5 ([8]; clinical isolate MSSA 15-5) of 0.03 µg/mL, an Anti-bacterial activity (MIC), strain MSSA 15-6 ([8]; clinical isolate MSSA 15-6) of 0.06 µg/mL and an Anti-bacterial activity (MIC), strain MSSE 15-3 ([9]; clinical isolate MSSE 15-3) of 0.015 µg/mL. For the same compound, the Anti-bacterial activity (MIC), strain MSSE 15-4 ([9]; clinical isolate MSSE 15-4) was < 0.008 µg/mL, the Anti-bacterial activity (MIC), strain MSSE 15-5 ([9]; clinical isolate MSSE 15-5) was < 0.008 µg/mL and the Anti-bacterial activity (MIC), strain MSSE 15-6 ([9]; clinical isolate MSSE 15-6) was < 0.008 µg/mL. For the same compound, the IC50 ([10]; Homo sapiens, HCT-116) was 6.21 µM, the HCT116 inhibition rate/% ([10]; concentration of 30 μM, 30 µM) was 78% and the inhibition at 30 µM ([11]; Homo sapiens, A549, 72 h, concentration of 30 μM) was > 50%. The IC50 ([11]; Homo sapiens, A549, 72 hours) was 5.12 µM, the “Inhibition of proliferation, Lung cancer A549” value [11, 15] was 63% and the IC50 ([12]; Homo sapiens, Bel-7402, 72 hours) was 10 µM. For the same compound, the “Inhibition of proliferation, Liver cancer BEL-7402” value [12, 15] was 81%, the inhibition at 30 µM ([13]; Homo sapiens, MGC-803, 72 h, concentration of 30 μM) was > 50% and the IC50 ([13]; Homo sapiens, MGC-803, 72 hours) was 12.7 µM. For the same compound, the “Inhibition of proliferation, Gastric cancer MGC-803” value [13, 15] was 65% and the MIC [14] was < 0.008 µg/mL.
